Positions of bridges follow the written chain, without caps; N, C: chain ends. Residues, ends and D or L forms follow the SMILES beside them.
What was measured:
[1] = cited from earlier work
[2] = biological target: T1, human plasma IgG1 (Homo sapiens, UniProt P01857); test: Fluorescence anisotropy binding, fluorescein-labeled peptide
T1 construct: the individual human plasma IgG isoforms: IgG1, IgG2, IgG3, or IgG4; purchased Calbiochem; host or cells: human plasma
Method: (§1) All measurements were performed in 384 well microplates with 20 nM fluorescein-labeled peptide and various concentrations of the IgG isoform in a volume of between 10 and 20 μl using a Tecan Polarion fluorescence polarization plate reader. All binding buffers included 0.01% (v/v) Tween 20 to prevent peptide adsorption to the microplate. The binding mixture was equilibrated for 10 minutes in the microplate at 30° C. prior to performing the measurement.
(§2) Peptides were synthesized, fluorescein-labeled and HPLC purified as described above. Binding studies were performed using either a mixture of human plasma IgG isoforms (the Fc protein) or the individual human plasma IgG isoforms: IgG1, IgG2, IgG3, or IgG4.
(§3) Measurements were performed in 384-well microplates with 2 nM fluorescein-labeled peptide and a varied concentration of the IgG isoform target in a volume of 10 μl using a Tecan Polarion fluorescence polarization plate reader. The Fc binding buffer was 50 mM Tris-HCl, 200 mM NaCl, pH 8.0, 0.01% Tween 20. The IgG binding buffer was PBS with 0.01% Tween 20. The binding mixtures were equilibrated for 10 minutes in the microplate at 30° C. prior to performing the measurements.

[3] = biological target: T2, human plasma IgG2 (Homo sapiens, UniProt P01859); test: as above
T2 construct: the individual human plasma IgG isoforms: IgG1, IgG2, IgG3, or IgG4; purchased Calbiochem; host or cells: human plasma
Method: as §1, §2, §3

[4] = biological target: Fc (mixture of human plasma IgG isoforms); test: as above; details: pH 8.0, 0.05 M Tris-HCl, 0.2 M NaCl
Method: (§4) Peptides were synthesized by BACHEM Bioscience, Inc., (King of Prussia, Pa.), fluorescein labeled and purified by HPLC. Binding studies were performed using either a mixture of human plasma IgG isoforms (the Fc target) or the individual human plasma IgG isoforms: IgG1, IgG2, IgG3, or IgG4. All Fc target proteins were obtained from Calbiochem.
as §1, §2, §3

[5] = biological target: T3, human plasma IgG3 (Homo sapiens, UniProt P01860); test: as above
T3 construct: the individual human plasma IgG isoforms: IgG1, IgG2, IgG3, or IgG4; purchased Calbiochem; host or cells: human plasma
Method: as §4, §1, §2, §3

[6] = biological target: T4, human plasma IgG4 (Homo sapiens, UniProt P01861); test: as above
T4 construct: the individual human plasma IgG isoforms: IgG1, IgG2, IgG3, or IgG4; purchased Calbiochem; host or cells: human plasma
Method: as §4, §1, §2, §3

[7] = test system: bovine IgG; type: binding; details: Table 11; unfractionated IgG
Procedure, shortened: (§5)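 Species specificity was assessed by static binding of unfractionated IgG to peptide resin in pH 7.2 phosphate or pH 7.5 Tris buffer with 0.01% Tween 20. Bound fraction was calculated from A280 of unbound target.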

[8] = test system: goat IgG; type: binding; details: Table 11; unfractionated IgG
Procedure, shortened: as §5

[9] = biological target: T5, human IgG1 (Homo sapiens, UniProt P01857); type: binding
T5 construct: all human subtypes derived from myeloma patients; purchased Calbiochem 400120; host or cells: myeloma patients
Procedure, shortened: (§6)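 Steps: dilute IgG in PBST or TBST; incubate with immobilized peptide 1-1.5 h, RT; collect unbound by centrifugation; measure A280; wash three times; elute with 0.1 M sodium bicarbonate pH 8.5 and/or 0.1 M sodium citrate pH 4.0 for 30-60 min and quantitate.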

[10] = biological target: T6, human IgG2 (Homo sapiens, UniProt P01859); type: binding
T6 construct: all human subtypes derived from myeloma patients; purchased Calbiochem 400122; host or cells: myeloma patients
Procedure, shortened: (§7)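 Read-out is A280 of unbound IgG (1.4 mg/ml extinction coefficient), with percent bound derived against non-filtered or negative controls. Targets were incubated with immobilized peptides in PBST or TBST for 1-1.5 h at room temperature. Hydrolyzed Sepharose and immobilized Protein A serve as negative and positive controls.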

[11] = test system: human IgG; type: binding
Procedure, shortened: as §5

[12] = test system: mouse IgG; type: binding; details: Table 11; unfractionated IgG
Procedure, shortened: as §5

[13] = biological target: T7, IgG3 (Homo sapiens, UniProt P01860); type: binding; set-up: all human subtypes derived from myeloma patients; purchased Calbiochem 400124; host or cells: myeloma patients
Procedure, shortened: as §6

[14] = biological target: T8, IgG4 (Homo sapiens, UniProt P01861); type: binding; set-up: all human subtypes derived from myeloma patients; purchased Calbiochem 400126; host or cells: myeloma patients
Procedure, shortened: as §7

[15] = biological target: T7, IgG3; test: Competition between synthetic peptides and Protein A for Fc binding; set-up: the individual human plasma IgG isoforms: IgG1, IgG2, IgG3, or IgG4; purchased Calbiochem; host or cells: human plasma; key: NB: no detected binding.; ?: partial decrease in anisotropy with added competitor; details: 5 mg/ml protein A
Method: (§8) Cross-competition studies between peptides were performed using 20 nM fluorescein-labeled peptide and 1-2 μM IgG1, IgG2, IgG3, or IgG4 in the presence and absence of a maximum of 100 μM unlabeled peptide or 5 mg/ml protein A.
(§9) This is consistent with the fact that Protein A is known not to bind human IgG3.

[16] = biological target: T8, IgG4; test: as above; set-up: the individual human plasma IgG isoforms: IgG1, IgG2, IgG3, or IgG4; purchased Calbiochem; host or cells: human plasma; key: NB: no detected binding.; ?: partial decrease in anisotropy with added competitor; details: 5 mg/ml protein A
Method: as §8, §9

[17] = Solubility in aqueous coupling buffer; type: physicochemical; details: aqueous coupling conditions
Source text: The varying degree of binding may be due to, in part, to lower coupling efficiencies as a result of varying degrees of solubility in aqueous coupling conditions. […] However, coupling efficiencies of all nine DX253 variants monitored by rp-HPLC was high and averaged>85%. Actual ligand densities were not determined.

[18] = pH 9.3, 0.01 M sodium bicarbonate
[19] = Table 9, immobilized peptide, 5.0 mg/ml resin load

SMILES: O=C(O)c1ccccc1-c1c2cc(F)c(=O)cc-2oc2cc(O)c(F)cc12 [Oregon Green]
- pKa of the carboxylic acid group [1]: 4.7

SMILES: CC(=O)N[C@@H](C)C(=O)NCC(=O)N[C@@H](Cc1ccc(O)cc1)C(=O)N[C@@H](Cc1ccc(O)cc1)C(=O)N[C@@H](Cc1c[nH]c2ccccc12)C(=O)N[C@H]1CSSC[C@@H](C(=O)N2CCC[C@H]2C(=O)N[C@@H](CC(=O)O)C(=O)N[C@@H](CCC(N)=O)C(=O)NCC(=O)N[C@H](C(=O)N2CCC[C@H]2C(=O)NCC(=O)N2CCC[C@H]2C(=O)N[C@@H](CCC(=O)O)C(=O)NCC(=O)NCC(=O)NCC(=O)N[C@@H](CCCCN)C(N)=O)[C@@H](C)O)NC(=O)[C@H](CC(C)C)NC(=O)CNC(=O)[C@H](Cc2c[nH]c3ccccc23)NC(=O)[C@H](Cc2ccc(O)cc2)NC(=O)[C@H](CC(N)=O)NC1=O [DX254]
- Kd ([2]; pH 5.7, 0.01 M Tris-acetate, 0 M NaCl): < 0.1 µM
- Kd ([2]; pH 7.4, 0.01 M Tris-HCl): < 2 µM
- Kd ([2]; pH 7.4, PBS, […] NaCl): 0.4 ± 0.2 µM
- Kd [2, 18]: 0.4 ± 0.4 µM
- Kd ([3]; pH 5.7, 0.01 M Tris-acetate): > 1 µM
- Kd ([3]; pH 7.4, 0.01 M Tris-HCl): 2 ± 0.7 µM
- Kd ([3]; pH 7.4, PBS, […] NaCl): 1.1 ± 0.3 µM
- Kd [3, 18]: 2 ± 2.7 µM
- Kd [4]: 1.6 ± 0.6 µM
- Kd ([5]; pH 5.7, 0.01 M Tris-acetate): 0.3 ± 0.3 µM
- Kd ([5]; pH 7.4, 0.01 M Tris-HCl): > 10 µM
- Kd [5, 18]: > 10 µM
- Kd ([6]; pH 5.7, 0.01 M Tris-acetate): > 10 µM
- Kd ([6]; pH 7.4, PBS, […] NaCl): > 10 µM
- Kd [6, 18]: > 10 µM
- % IgG Capture - Batch Binding, Bovine IgG [7]: 0%
- % IgG Capture - Batch Binding, Goat IgG [8]: 0%
- % IgG Capture - Batch Binding, Human IgG1 [9, 19]: 28%
- % IgG Capture - Batch Binding, Human IgG2 [10, 19]: 16%
- % IgG Capture - Batch Binding, Human IgG ([11]; Table 11, unfractionated IgG): 16%
- % IgG Capture - Batch Binding, Mouse IgG [12]: 2%
- % IgG Capture - Batch Binding, Human IgG3 [13, 19]: 36%
- % IgG Capture - Batch Binding, Human IgG4 [14, 19]: 6%
- Competition between labeled peptide and Protein A, IgG3 [15]: ?
- Competition between labeled peptide and Protein A, IgG4 [16]: NB

SMILES: CC(=O)N[C@@H](CO)C(=O)N[C@@H](CCCNC(=N)N)C(=O)N[C@@H](C)C(=O)N[C@H]1CSSC[C@@H](C(=O)N[C@@H](C)C(=O)NCC(=O)N[C@@H](Cc2c[nH]cn2)C(=O)N[C@@H](CCC(=O)O)C(=O)N2CCC[C@H]2C(=O)NCC(=O)N2CCC[C@H]2C(=O)N[C@@H](CCC(=O)O)C(=O)NCC(=O)NCC(=O)NCC(=O)N[C@@H](CCCCN)C(N)=O)NC(=O)[C@H](Cc2c[nH]c3ccccc23)NC(=O)[C@H](C(C)C)NC(=O)[C@H](CC(C)C)NC(=O)[C@H](C)NC(=O)CNC(=O)[C@H](CO)NC(=O)[C@H](Cc2c[nH]c3ccccc23)NC(=O)[C@H](CC(=O)O)NC(=O)[C@H](CCCNC(=N)N)NC(=O)[C@H](CO)NC1=O [DX1139] (Ac-SRACSRDWSGALVWCAGHEPGPEGGGK-NH2; disulfide 4-15)
- Batch Binding (% Capture of Total Load) hIgG1 ([9]; peptide immobilized on NHS activated sepharose 4 fast flow, target ligand density 2.0 μmole/ml, batch filterplate, hIgG1): 43%
- Batch Binding (% Capture of Total Load) hIgG2 ([10]; peptide immobilized on NHS activated sepharose 4 fast flow, target ligand density 2.0 μmole/ml, batch filterplate, hIgG2): 34%
- Batch Binding (% Capture of Total Load) hIgG ([11]; peptide immobilized on NHS activated sepharose 4 fast flow, target ligand density 2.0 μmole/ml, batch filterplate, hIgG): 36%
- Solubility in aqueous coupling buffer [17]: not fully soluble
- Batch Binding (% Capture of Total Load) hIgG3 ([13]; peptide immobilized on NHS activated sepharose 4 fast flow, target ligand density 2.0 μmole/ml, batch filterplate, hIgG3): 0%
- Batch Binding (% Capture of Total Load) hIgG4 ([14]; peptide immobilized on NHS activated sepharose 4 fast flow, target ligand density 2.0 μmole/ml, batch filterplate, hIgG4): 22%
